Patent US6605666B1, “Polyurethane film-forming dispersions in alcohol-water system” (3M Innovative Properties Company, priority 2000, dated 2003)

Key:
[1] = Spraying coated dispersion with water solutions (cospraying); format: physicochemical; conditions: water solution of the compound sprayed on knife coated dispersion of Example 9B
Text: For an ionic dispersion, a solution containing polyion of the opposite charge can be applied to the film to create an instantaneous tack-free film. For example, an anionic dispersion can be coated and before it has formed a film, a solution containing polyvalent cation is sprayed on the coating's surface to yield a tack free film. This method is commonly referred to as “cospraying.” A preferred solution contains water and metal cations, such as calcium and magnesium. Preferably, the film becomes tack free almost instantaneously after spraying the water solution (i.e., within a minute, preferably within a few seconds). In applications where very rapid tack-free times are required, such as in preoperative preparation for surgery, it may be beneficial to mist or otherwise wet the surface of the film. By “tack-free,” it is generally meant that the misted film contains little or no adhesion to other substrates at ambient conditions, typically from about 20° to 30° C.
The dispersions of Example 9B we knife coated onto a polypropylene coated paper release liner and sprayed with water solutions containing the following materials. The film appearance was recorded in the Result column.

[2] = Stability of dispersions on storage / standing; format: physicochemical; conditions: Example 6 dispersions
Method: The particle size of certain dispersions was measured on a Coulter LS 100 laser Particle Size Analyzer equipped with a microvolume module. Usually, the particle size was measured one day after dispersions were made. The particle size was measured again about 30 days after the dispersions were made. During this period, the dispersions were sealed and stored at room temperature. Samples were diluted in the same solvent mixture as the original dispersion to make the measurement. The results are shown in Table 2 below, which indicate that the dispersions have mean particle sizes generally under about 5 to 6 micrometers (μm). All dispersions appear to be stable after about 30 days.
After adding the prepolymer, each example was adjusted to a pH of about 7.0. To Example 2B was added a 40% solids, water based polyurethane pressure sensitive adhesive (PSA) (WD4006 from H.B. Fuller, St. Paul, Minn.). The PSA was added to increase adhesion to skin. The PSA was added to the alcohol-water solvent system prior to prepolymer addition. The EDA was added and the reaction mixture stirred at high speed for 20 minutes. Stable dispersions were obtained in call cases.
The dispersions with and without iodine anti-microbial agents were applied to human skin in small patches and allowed to dry. Adhesion was very good for all samples.

| Compound | Result (film appearance) [1] | stability of anti-microbial agent in the dispersions upon standing [2] |
| --- | --- | --- |
| O=C([O-])CC(O)(CC(=O)[O-])C(=O)[O-].O=C([O-])CC(O)(CC(=O)[O-])C(=O)[O-].[Ca+2].[Ca+2].[Ca+2] [Calcium Citrate] | No effect |  |
| [Ca+2].[Cl-].[Cl-] [Calcium chloride] | Almost instantaneous tack-free film. |  |
| [Cl-].[Na+] [Sodium Chloride] | Random coagulation. |  |
| povidone-iodine |  | split out of the dispersions as a separate phase upon standing |
